“And” between values parts separate entries of the source, which are not always exact repeats. Identical values can stand only once.
Experiments:
Type in all cases: cell-based
[1] = system: Tetrahymena (Trophozoite); assay: Tetrahymena toxicity test (minimal lethal concentration); conditions: lowest concentration at which all Tetrahymena were dead in all replicate wells; replicate tests
Description: Tetrahymena cells from a commercial source were grown in PCB broth in a tissue culture flask. The cells were removed from the broth via centrifuge and suspended in Osterhout-tris buffer at a concentration of no greater than 60 cells per 10 micro liters. A standard 96 well test plate comprising successive 50% dilutions of this cellular solution per row was prepared. Chemicals to be tested were added to 3 adjacent wells. Organism viability was tested via observation through an inverted microscope at time zero and every 24 hours thereafter. Tetrahymena were judged viable if they were motile or had active contractile vacuoles. All organisms in a well had to be dead to have a negative reading. A positive reading indicated all or some viable orgasms in a well. The minimal lethal concentration (MLC) of the test materials to Tetrahymena was the lowest toxicant concentration in which all Tetrahymena were dead in all replicate wells.

[2] = system: Acanthamoeba (Cyst); assay: Acanthamoeba cyst toxicity test (minimal lethal concentration); conditions: 24 hours exposure at 30° C.; no trophozoites after 6 days; replicate tests
Description: E. coli (ATCC#25922) were grown in Difaco Bacto nutrient agar and killed via UV light for use as nutrient for the Acanthamoeba cysts. The killed E. coli were placed on a non-nutrient agar plate. 1-2 drops of washed Acanthamoeba (from Tennessee Technological University) from a 2-3 day old plate were placed on the plate and incubated for 2-3 days at 30° C. A biofilm was prepared by placing approximately 9 milliliters of the active E. coli culture in sterile coplin jars containing 4 cover slips and incubating over night. The cover slips were rinsed in Osterhout-tris buffer and placed on 2-3 day old Acanthamoeba trophozoite plates and incubated for 7 days. In 7 days, the trophozoites will exhaust the E. coli nutrients and form cysts. The cover slips were soaked in approximately 9 milliliters of Osterhout-tris buffer and the cover slips placed in coplin jars. 50 ppm dilutions of the biocides to be tested were added to the coplin jars containing the cover slips with cysts and the coplin jars were incubated at 30° C. for 24 hours.
After 24 hours, the test solutions were removed and the cover slips soaked in Osterhout-tris buffer for 30 minutes. The cover slips were placed on non-nutrient agar plates with live E. coli. The plates were observed using an inverted microscope every day for 6 days to see if trophozoites were present. If trophozoites appeared, the test was positive. […]

[3] = system: Acanthamoeba Trophozoite; assay: Acanthamoeba trophozoite toxicity test (minimal lethal concentration); conditions: 24 hours at 30°; all organisms dead in all replicate wells; replicate tests
Description: E. coli (ATCC #25922) grown in Difco Bacto nutrient agar and killed via UV light were used as nutrient for the Acanthamoeba. The killed E. coli were placed on a non-nutrient agar plate. 1-2 drops of washed Acanthamoeba Trophozoite (from Tennessee Technological University) were placed on the plate and incubated for 2-3 days at 30° C. An inoculum was prepared by placing about 2 ml of Osterhout-tris buffer onto the 2-3 day old plates. A sterile loop was used to dislodge the Trophozoites from the agar surface. The liquid was transferred to a sterile tube and diluted 1:10. 10 micro liters were placed on a slide and counted to confirm about 90 Acanthamoeba per 10 micro liters for the test. This solution was placed in a standard 96 well test plate with successive 50% dilutions per row. A 400 ppm solution of toxicants in Osterhout-tris buffer was prepared. Toxicants were added to 3 adjacent wells for testing. To avoid cross contamination, a well was skipped between each 3 replicate wells in every row and every other row skipped on the plate. The plate was incubated at 30° for 24 hours. An inverted microscope was used to observe the organisms in the wells. Cytoplasm will move in live amoeba and/or the contractile vacuoles will remain active. All organisms had to be dead in a well to have a negative reading. […]

Row | Compound | Minimal Lethal Concentration, Tetrahymena (Trophozoite) [1] [µg/mL] | Minimal Lethal Concentration, Acanthamoeba (Cyst) [2] | Minimal Lethal Concentration, Acanthanoeba (Trophozoite) [3] [µg/mL]
1 | CCCCCCCCCCCCCC[P+](CCCC)(CCCC)CCCC.[Cl-] [TBTDPC, Tri-n-butyl-tetradecylphosphonium chloride] | 2.5 | 25 μg/ml (4×) and 40 μg/ml | 2.5
2 | OC[P+](CO)(CO)CO.[Cl-] [THPS, Tetra kis hydroxymethyl phosphonium chloride, reference compound] | 28 | >50 µg/mL | 56
